{"source": "patent US9011853B2", "about": "“B7-H4 fusion proteins and methods of use thereof” (Amplimmune, Inc., priority 2009, dated 2015)", "test_system": "serum levels of 58 analytes", "test": "Serum biomarker analysis, quantitative immunoassay multi-analyte profiling (Rules-Based Medicine RodentMAP v2.9), AA#80", "type": "in vivo, mouse", "conditions": "serum, listed as Human LgG1 Control", "procedure": "In AA#80, serum samples were collected on Day 27, Day 34, Day 41 and Day 55 via the submandibular vein. Approximately 200 μL of blood per mouse was collected in Microtainer® serum separator tubes. Serum was removed following centrifugation and stored at <−65° C. until analysis.\nSelected serum samples were sent to Rules-Based Medicine (Austin, Tex.) for quantitative immunoassay multi-analyte profiling of serum samples, with the goal of identifying biomarkers that could be used to monitor disease progression and response to B7-H4-Ig treatment. Day 27, Day 34, and Day 41 sera from the three representative mice in the B7-H4-Ig group (tag #3332, 3334, and 3338) and three representative mice in the Synagis® group (tag #3324, 3329, and 3330) were analyzed for levels of 58 analytes using the RodentMAP v2.9 Testing Service.\nData from the Rules-Based Medicine analysis was analyzed using Microsoft Excel and GraphPad Prism software. T-tests were performed to compare the levels of each analyte in the B7-H4-Ig versus Synagis® treated samples. No correction was made for multiple comparisons. Additionally, correlation coefficients were calculated for each analyte versus disease score.", "note": "“And” between values parts separate entries of the source, which are not always exact repeats. Equal values may be shown once."}
{"substance": "Synagis®: humanized monoclonal IgG antibody against the F protein of Respiratory Syncytial Virus; used as a human IgG1 isotype control [reference compound]", "values": [{"measurement": "MDC (Macrophage-Derived Chemokine)", "setting": "Day 41, LDD 21.85", "result": "1410 pg/mL and 1430 pg/mL and 1150 pg/mL"}, {"measurement": "MCP-3 (Monocyte Chemoattractant Protein-3)", "setting": "Day 41, LDD 31.36", "result": "235 pg/mL and 236 pg/mL and 242 pg/mL"}, {"measurement": "VEGF (Vescular Endotheial Cell Growth Factor)", "setting": "Day 41, LDD 38.2", "result": "150 pg/mL and 171 pg/mL and 212 pg/mL"}, {"measurement": "IP-10 (Inducible Protein-10)", "setting": "Day 41, LDD 40.28", "result": "54.7 pg/mL and 68.1 pg/mL and 66.8 pg/mL"}, {"measurement": "LIF (Leukemia Infabitory Factor)", "setting": "Day 41, LDD 43.6", "result": "1650 pg/mL and 1580 pg/mL and 1470 pg/mL"}, {"measurement": "MCP-5 (Monocyte Chemoattractant Protein-5)", "setting": "Day 41, LDD 46.38", "result": "45.6 pg/mL and 47.4 pg/mL and 52.8 pg/mL"}, {"measurement": "SCF (Stem Cell Factor)", "setting": "Day 41, LDD 75.17", "result": "214 pg/mL and 249 pg/mL and 201 pg/mL"}, {"measurement": "MIP-1beta (Macrophage Inflammatory Protein-1beta)", "setting": "Day 41, LDD 77.65", "result": "144 pg/mL and 115 pg/mL and 152 pg/mL"}, {"measurement": "Lymphotactin", "setting": "Day 41, LDD 85.48", "result": "178 pg/mL and 183 pg/mL and 194 pg/mL"}, {"measurement": "VWF (Von Willebrand Factor)", "setting": "Day 41, LDD 98.6", "result": "131 ng/mL and 103 ng/mL and 111 ng/mL"}, {"measurement": "M-CSF (Macrophage-Colony Stimulating Factor)", "setting": "Day 27, LDD 0.01795, individual mice", "result": "6.19 ng/mL and 6.6 ng/mL and 6.59 ng/mL"}, {"measurement": "MIP-1gamma (Macrophage Inflammatory Protein-1gamma)", "setting": "Day 27, LDD 0.0736, individual mice", "result": "36.9 ng/mL and 37.1 ng/mL and 37.9 ng/mL"}, {"measurement": "OSM (Oncostatin M)", "setting": "Day 27, LDD 0.13, individual mice", "result": "<low> (2×) and 0.0103 ng/ml"}, {"measurement": "TNF-alpha (Tumor Necrosis Factor-alpha)", "setting": "Day 27, LDD 0.137, individual mice", "result": "0.0965 ng/ml and <low> (2×)"}, {"measurement": "KC/GROalpha (Melanoma Growth Stimulatory Activity Protein)", "setting": "Day 27, LDD 0.1739, individual mice", "result": "0.0804 ng/mL and 0.0795 ng/mL and 0.0633 ng/mL"}, {"measurement": "TEMP-1 (Tissue Inhibitor of Metalicproteinase Type-1)", "setting": "Day 27, LDD 0.18, individual mice", "result": "1.38 ng/mL and 1.13 ng/mL and 1.23 ng/mL"}, {"measurement": "IL-5 (Interleukin-5)", "setting": "Day 27, LDD 0.194, individual mice", "result": "0.438 ng/mL and 0.403 ng/mL and 0.264 ng/mL"}, {"measurement": "MIP-1alpha (Macrophage Inflammatory Protein-1alpha)", "setting": "Day 27, LDD 0.2255, individual mice", "result": "3.03 ng/ml (2×) and 3.32 ng/ml"}, {"measurement": "IL-7 (Interleukin-7)", "setting": "Day 27, LDD 0.309, individual mice", "result": "0.0593 ng/ml and <low> (2×)"}, {"measurement": "MIP-3beta (Macrophage Inflammatory Protein-3beta)", "setting": "Day 27, LDD 0.465, individual mice", "result": "2.89 ng/mL and 3.05 ng/mL and 2.6 ng/mL"}, {"measurement": "RANTCS (Regulation Upon Activation Normal T-Cell Expressed and Secreted)", "setting": "Day 27, LDD 0.5, individual mice", "result": "0.0826 pg/ml and <low> (2×)"}, {"measurement": "Tissue Factor", "setting": "Day 27, LDD 0.5175, individual mice", "result": "9.17 ng/ml (2×) and 10 ng/ml"}, {"measurement": "MPO (Myeloperoxidase)", "setting": "Day 27, LDD 0.95, individual mice", "result": "216 ng/mL and 191 ng/mL and 265 ng/mL"}, {"measurement": "SGOT (Serum Glutamic-Oxaloacetic Transaminase)", "setting": "Day 27, LDD 1.86, individual mice", "result": "84.6 µg/mL and 79.7 µg/mL and 75.4 µg/mL"}, {"measurement": "TPO (Thromboproletin)", "setting": "Day 27, LDD 2.66, individual mice", "result": "38.9 ng/ml (2×) and 34.2 ng/ml"}, {"measurement": "SAP (Setrum Amtyloid P)", "setting": "Day 27, LDD 5.4, individual mice", "result": "40.5 µg/mL and 34.2 µg/mL and 42.9 µg/mL"}, {"measurement": "MIP-2 (Macrophage Inflammatory Protein-2)", "setting": "Day 27, LDD 7.174, individual mice", "result": "16.1 pg/mL and 22.2 pg/mL and 23.4 pg/mL"}, {"measurement": "MMP-9 (Matrix Metalloproteinase-9)", "setting": "Day 27, LDD 10, individual mice", "result": "166 ng/mL and 177 ng/mL and 431 ng/mL"}, {"measurement": "IL-6 (Interleukin-6)", "setting": "Day 27, LDD 13.852, individual mice", "result": "6.27 pg/ml (2×) and <low>"}, {"measurement": "MCP-1 (Monocyte Chemoattractant Protein-1)", "setting": "Day 27, LDD 16.924, individual mice", "result": "74.4 pg/mL and 64.7 pg/mL and 70.5 pg/mL"}, {"measurement": "VCAM-1 (Vescular Cell Adhesion Molecule-1)", "setting": "Day 27, LDD 19, individual mice", "result": "2260 ng/mL and 2080 ng/mL and 3160 ng/mL"}, {"measurement": "MDC (Macrophage-Derived Chemokine)", "setting": "Day 27, LDD 21.85, individual mice", "result": "1250 pg/mL and 1310 pg/mL and 1070 pg/mL"}, {"measurement": "Myoglobin", "setting": "Day 27, LDD 24, individual mice", "result": "8.96 ng/mL and 11.4 ng/mL and 23.8 ng/mL"}, {"measurement": "MCP-3 (Monocyte Chemoattractant Protein-3)", "setting": "Day 27, LDD 31.36, individual mice", "result": "168 pg/mL and 149 pg/mL and 138 pg/mL"}, {"measurement": "VEGF (Vescular Endotheial Cell Growth Factor)", "setting": "Day 27, LDD 38.2, individual mice", "result": "144 pg/mL and 136 pg/mL and 139 pg/mL"}, {"measurement": "IP-10 (Inducible Protein-10)", "setting": "Day 27, LDD 40.28, individual mice", "result": "45.3 pg/mL and 52 pg/mL and 55.5 pg/mL"}, {"measurement": "LIF (Leukemia Infabitory Factor)", "setting": "Day 27, LDD 43.6, individual mice", "result": "1650 pg/mL and 1390 pg/mL and 1470 pg/mL"}, {"measurement": "MCP-5 (Monocyte Chemoattractant Protein-5)", "setting": "Day 27, LDD 46.38, individual mice", "result": "35.7 pg/mL and 37.1 pg/mL and 35.5 pg/mL"}, {"measurement": "SCF (Stem Cell Factor)", "setting": "Day 27, LDD 75.17, individual mice", "result": "226 pg/mL and 207 pg/mL and 220 pg/mL"}, {"measurement": "MIP-1beta (Macrophage Inflammatory Protein-1beta)", "setting": "Day 27, LDD 77.65, individual mice", "result": "173 pg/ml (2×) and 150 pg/ml"}, {"measurement": "Lymphotactin", "setting": "Day 27, LDD 85.48, individual mice", "result": "198 pg/mL and 178 pg/mL and 189 pg/mL"}, {"measurement": "VWF (Von Willebrand Factor)", "setting": "Day 27, LDD 98.6, individual mice", "result": "125 ng/mL and 131 ng/mL and 155 ng/mL"}]}
